Among the data in PubChem BioAssay (NCI) are GI50 and TGI values, retold here.

Test systems include SR leukemia; ACHN renal; HOP-62 NSCLC; UACC-62 melanoma; HCT-15 colon; A549 NSCLC; TK-10 renal; SW-620 colon; HCC-2998 colon; NCI-H23 lung.
Common to all, as to assay: DTP human tumour cell line panel, 48 h

“And” between values parts separate entries of the source, which are not always exact repeats. Equal values may be shown once.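 Compound exposure: 48 hours, 5 concentrations, 96-well plates. GI50: concentration for 50% inhibition of growth. The concentration for full growth arrest is given as TGI.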

Consider `COC1/C=C\C=C(/C)C(=O)Nc2cc3nc4ccc(Br)cc4oc-3c(c2=O)CC(C)CC(OC)C(O)C(C)/C=C(\C)C1OC(N)=O` (configuration not stated), for which the GI50 in the experiment with SR leukemia is 0.00272 µM; with ACHN renal it was 0.00459 µM; in the experiment with UACC-62 melanoma, 0.00162 µM; with HCT-15 colon, 0.00583 µM; in the experiment with TK-10 renal, 0.00681 µM; in the experiment with SW-620 colon, 0.000996 µM. Further, the GI50 with HCC-2998 colon is 0.00856 µM. Besides, the TGI with SR leukemia was 0.634 µM; in the experiment on ACHN renal it was 15.6 µM; in the experiment with HOP-62 NSCLC, 21.2 µM; in the experiment on HCT-15 colon it was 6.99 µM; in the experiment on A549 NSCLC, 22.7 µM; with TK-10 renal, 17.6 µM. Further, the TGI is 2.75 µM in the experiment on SW-620 colon and 3.2 µM in the experiment on HCC-2998 colon.
As for `C1CNCCNCCNCCN1`, the TGI in the experiment with SR leukemia, in the experiment with ACHN renal, with HOP-62 NSCLC, with UACC-62 melanoma, in the experiment on A549 NSCLC and in the experiment on TK-10 renal was over 100 µM in each case. For the same molecule, the TGI with NCI-H23 lung, with SW-620 colon and with HCC-2998 colon was over 100 µM throughout.
`C[C@]12CC[C@H](O)CC1=CC[C@@H]1C2CC[C@]2(C)c3nn(-c4ccc(F)cc4)nc3CC12` (some centres not stated): the TGI in the experiment on SR leukemia, in the experiment on ACHN renal, with HOP-62 NSCLC, in the experiment with UACC-62 melanoma, with A549 NSCLC and with TK-10 renal was over 100 µM each time. The TGI with NCI-H23 lung is over 100 µM; with SW-620 colon, over 100 µM; with HCC-2998 colon it was 72.7 µM.
Consider `CC1(C)OC[C@@H]([C@@]2(CO[Si](C)(C)C(C)(C)C)CC=CC(=O)O2)O1`, for which the GI50 was 19 µM in the experiment on SR leukemia; 22.4 µM in the experiment with ACHN renal; 31 µM in the experiment on HOP-62 NSCLC; 19 µM in the experiment on UACC-62 melanoma; 34.7 µM with HCT-15 colon; 16.7 µM in the experiment with A549 NSCLC. Besides, the GI50 was 18.3 µM in the experiment with TK-10 renal, 28.3 µM with SW-620 colon and 18.6 µM in the experiment with HCC-2998 colon. Moreover, the TGI was 59.9 µM in the experiment with SR leukemia; 51.7 µM in the experiment on ACHN renal; 53.1 µM in the experiment on HOP-62 NSCLC; 44.6 µM in the experiment with UACC-62 melanoma; over 100 µM in the experiment with HCT-15 colon; 47.5 µM in the experiment with A549 NSCLC. In addition, the TGI in the experiment on TK-10 renal was determined as 40.7 µM; in the experiment on SW-620 colon it was 69.8 µM; in the experiment with HCC-2998 colon, 34.1 µM.
`COC(=O)/C=C(C)/C=C/c1cc(C(C)=O)c(C)o1`: the TGI with SR leukemia, in the experiment with ACHN renal, in the experiment on HOP-62 NSCLC, in the experiment on UACC-62 melanoma, in the experiment with HCT-15 colon and in the experiment on A549 NSCLC was over 100 µM throughout. Besides, the TGI in the experiment on NCI-H23 lung, in the experiment with SW-620 colon and in the experiment on HCC-2998 colon was over 100 µM throughout.
`C=CC[C@H]1C[C@@]2(C)OC[C@H](C(C)C)N2C1=O`: the TGI with SR leukemia, in the experiment on ACHN renal, in the experiment on HOP-62 NSCLC, in the experiment with UACC-62 melanoma, in the experiment on HCT-15 colon and with A549 NSCLC was over 100 µM in each case. The TGI in the experiment with TK-10 renal, in the experiment on NCI-H23 lung and in the experiment on SW-620 colon was over 100 µM each time.
As to `CN(C)NC1=NS(=O)(=O)c2cc3c(cc2S1)N(N(C)C)C(=O)c1cc2c(cc1N(N(C)C)C3=O)SC(NN(C)C)=NS2(=O)=O`, the TGI in the experiment with SR leukemia, in the experiment on ACHN renal, in the experiment on HOP-62 NSCLC, with HCT-15 colon, with A549 NSCLC and in the experiment with TK-10 renal was over 10 µM in each case. In addition, the TGI with NCI-H23 lung, in the experiment on SW-620 colon and with HCC-2998 colon was over 10 µM in each case.
With `COC1/C(=C\C(=O)OC(C)(C)C)c2ccccc2N1C(C)=O` (configuration not stated), the TGI in the experiment on SR leukemia, with ACHN renal, with HOP-62 NSCLC, in the experiment with UACC-62 melanoma, in the experiment on HCT-15 colon and in the experiment with A549 NSCLC was over 100 µM each time. Moreover, the TGI in the experiment on NCI-H23 lung, in the experiment with SW-620 colon and in the experiment on HCC-2998 colon was over 100 µM in each case.
`Nc1nc(Nc2ccc3c(c2)CC[C@@H](N2CCCC2)CC3)nn1-c1cc2c(nn1)-c1ccccc1CCC2`: the GI50 in the experiment on SR leukemia is 0.441 µM; in the experiment on ACHN renal it was 0.878 µM; with UACC-62 melanoma, 1.89 µM; with HCT-15 colon, 0.798 µM; in the experiment with A549 NSCLC it was 1.63 µM; with TK-10 renal, 1.35 µM. For the same molecule, the GI50 in the experiment with NCI-H23 lung was 1.72 µM; in the experiment on SW-620 colon, 1.7 µM; with HCC-2998 colon, 1.61 µM. For the same molecule, the TGI with SR leukemia was determined as 2.69 µM; with ACHN renal, 2.11 µM; in the experiment on UACC-62 melanoma, 3.67 µM; in the experiment on HCT-15 colon, 2.26 µM; with A549 NSCLC it was 3.57 µM; in the experiment on TK-10 renal, 2.97 µM. Also, the TGI with NCI-H23 lung was 3.56 µM; with SW-620 colon, 3.44 µM; in the experiment with HCC-2998 colon, 3.1 µM.
`Cc1ncc([N+](=O)[O-])n1CCNS(=O)(=O)CCCn1ccnc1[N+](=O)[O-]`: the TGI in the experiment on SR leukemia, in the experiment with ACHN renal, in the experiment with HOP-62 NSCLC, with UACC-62 melanoma, in the experiment on HCT-15 colon and with A549 NSCLC was over 100 µM throughout. Moreover, the TGI with TK-10 renal, with NCI-H23 lung and in the experiment with SW-620 colon was over 100 µM each time.
Take `COc1ccc(/C=C\c2cc(OC)c(OC)c(OC)c2)cc1OC(=O)C(N)CCC(=O)O` (configuration not stated): the GI50 in the experiment on SR leukemia was 0.000532 µM; with UACC-62 melanoma, 0.000597 µM; in the experiment with A549 NSCLC, 0.00398 µM and 0.0108 µM; with SW-620 colon, 0.000594 µM. For the same molecule, the TGI in the experiment on HOP-62 NSCLC was over 100 µM; with UACC-62 melanoma, over 100 µM; in the experiment on A549 NSCLC it was 28.4 µM and > 100 µM; in the experiment with TK-10 renal it was over 100 µM; in the experiment on NCI-H23 lung, 0.000785 µM and 0.0056 µM; in the experiment with SW-620 colon it was over 100 µM.
For the molecule `N#CC1=C(N)N=C(N2CCCCC2)C(C#N)C12Nc1ccccc1S2` (configuration not stated), the GI50 was over 100 µM in the experiment with SR leukemia; 27.1 µM with ACHN renal; 27.7 µM in the experiment on HOP-62 NSCLC; 16.9 µM with UACC-62 melanoma; 22 µM in the experiment with HCT-15 colon; 29.5 µM in the experiment with A549 NSCLC. Besides, the GI50 with TK-10 renal was 29.6 µM; in the experiment on NCI-H23 lung it was 16.7 µM; in the experiment on SW-620 colon it was 38.4 µM. The TGI in the experiment on SR leukemia was over 100 µM; with ACHN renal, 76.4 µM; in the experiment on HOP-62 NSCLC it was over 100 µM; with UACC-62 melanoma it was 49.1 µM; in the experiment with HCT-15 colon it was over 100 µM; in the experiment on A549 NSCLC it was over 100 µM. In addition, the TGI is over 100 µM in the experiment with TK-10 renal, 52.8 µM in the experiment with NCI-H23 lung and over 100 µM with SW-620 colon.
